Reference: PMC9525106, “Intestinal permeability of agaro-oligosaccharides: Transport across Caco-2 cell monolayers and pharmacokinetics in rats” (Frontiers in Nutrition, 2022)
Read-outs that look alike come from different tables or passages of the source.

What was measured:
[1] = system: peritoneal macrophages; design: method as in PMID 22791164; conditions: oral administration to mice, 3% AOSs containing water for 3 weeks; cited from earlier work
[2] = system: Caco-2 cell monolayers; assay type: in vitro ADME, human
Description: (§1) Caco-2 cells were purchased from DS Pharma (Osaka, Japan). The cells (passage 20–27) were cultured in E-MEM containing 10% (v/v) FBS, 1% (v/v) MEM-NEAA, and 1% (v/v) PS. The cells were incubated at 37°C in an atmosphere of 5% CO2 under 95% relative humidity. When the cells reached 80–90% confluence, they were passaged at a density of 1.0 × 10^5 cells onto a 12-well Transwell Permeable Support (0.4-μm pore polyester membrane insert, Corning, NY, USA). The cells were cultured for 19–21 days to obtain a monolayer. The culture medium (0.6 ml in the apical side and 1.5 ml in the basolateral side) was replaced every 1–2 days. The integrity of the Caco-2 cell monolayer was evaluated by measuring transepithelial electrical resistance (TEER) using a Millicell-ERS-2 system (Merck, Darmstadt, Germany). Only cell monolayers with final TEER values above 700 Ω · cm^2, indicative of high barrier integrity, were used for the transport assays.
(§2) Caco-2 cells monolayers were preincubated in HBSS for 30 min at 37°C. Subsequently, 0.6 ml of 0.5 mg/ml Abi and Ahe and 1.5 ml of HBSS to the apical and basolateral sides, respectively. After incubation for 0, 1, 2, and 3 h, the supernatant was collected from the basolateral side. To identify the transport mechanisms, Caco-2 cell monolayers were preincubated with sodium azide (1 mM), colchicine (1 mM), or cytochalasin B (5 μg/ml) dissolved in HBSS with 0.1% DMSO for 30 min, followed by the incubation of 0.5 mg/ml Abi and Ahe for 2 h. To remove salt, the collected supernatant was applied to the graphitized carbon solid-phase extraction (GC-SPE) using InertSep GC (200 mg/3 ml) (GL Sciences Inc., Tokyo, Japan), according to the method described by Ninonuevo et al. ([12]). The SPE cartridge was first equilibrated with 6 ml of 80% acetonitrile in 0.1% acetic acid (v/v), followed by 3 ml of DW. The basal solution was dissolved in DW to 3 ml and loaded onto the cartridge. The salts were removed by washing with 6 ml of DW, and Abi or Ahe was eluted with 3 ml of 20% acetonitrile. After ABEE derivatization, the collected solution was evaporated to dryness and subjected to LC-MS. The apparent permeability coefficients (Papp) were calculated ([13]) as Papp = (dQ/dt) × (1/AC0), where dQ/dt is the permeation rate (μg/s), A is the area of the monolayer of Caco-2 cells (cm^2), and C0 is the initial concentration of Abi or Ahe in the apical chamber (μg/ml).

[3] = rat, in vivo, po
Description: To prepare the standard curve samples of AOSs, the AOSs were labeled with ABEE using an ABEE labeling kit (J-Chemical, Tokyo, Japan) according to the method developed by Yasuno et al. ([11]). The reaction was performed according to the instructions provided by the manufacturer. Briefly, 40 μl of the ABEE reagent solution was added to 10 μl of the solution of AOSs and the mixture was vortexed and incubated at 80°C for 1 h. After cooling to 15–20°C, 200 μl of DW and an equal volume of chloroform were added, and the mixture was then vortexed and centrifuged for 1 min. The upper layer was filtered through a polytetrafluoroethylene membrane (4 mm diameter, 0.45-μm pore size; Membrane Solutions Limited, Plano, TX, USA) and subjected to LC-MS.
For the HPLC measurements, an LC-20AD pump (Shimadzu) fitted with a DGU-20A 5R degassing unit (Shimadzu) was used. The analytes were injected using a SIL-20AC autosampler (Shimadzu). In addition, a CTO-20AC column oven (Shimadzu) was used, and entire equipment was controlled using a CBM-20A unit (Shimadzu). The samples were separated on a Shim-pack VP-ODS (150 × 2.0 mm, 4.6 μm; Shimadzu) combined with a Shim-pack GVP-ODS guard column (2.0 mm i.d. × 5 mm, 4.6 μm; Shimadzu). The mobile phase consisted of acetic acid (0.1%) in water (A) and acetic acid (0.1%) in acetonitrile (B). The gradient conditions were as follows: 0–30 min, 9%−13% B; 30–45 min, 80% B; 45–60 min, 9% B. The flow rate was 0.2 ml/min. The column oven temperature was set at 60°C, and the autosampler temperature was 10°C.
The detection was performed using an LCMS-2020 (Shimadzu) ESI-MS device. The analytes were identified and quantified by selected ion monitoring in the positive-ion mode. The MS conditions were as follows: interface temperature, 350°C; desolvation line (DL) temperature, 250°C; heat block temperature, 200°C; nebulizer gas flow, 1.5 L/min; drying gas flow, 15 L/min; interface voltage, 4.5 kV; DL voltage, 0 kV.
Fifteen female Sprague–Dawley rats, aged 7 weeks, were purchased from Charles River Laboratories Japan (Kanagawa, Japan). The rats were acclimatized to standard laboratory conditions (20–25°C, 40%−70% humidity, and 12 h light/dark cycle) for 1 week.
After a fasting period of 12 h, 2 ml of phosphate-buffered saline (pH 7.4) containing 0%, 10%, or 50% AOSs was orally administered to five rats from each group (220–250 g body weight) using feeding gavages. The AOSs comprised 30.2, 29.1, and 31.6% of Abi, Ate, and Ahe, respectively. Blood (100 μl) was collected before and after 1, 2, 4, 8, and 24 h of oral administration from the tail vein using 10,000 U heparin-coated syringes (1 ml) with a 26G × 1/2 ” needle. The blood samples were centrifuged at 1,000 g for 10 min, and the supernatants were collected. Acetonitrile was added to the plasma samples at a final concentration of 60%. The samples were vigorously vortexed and centrifuged at 6,000 g for 5 min; the supernatants were collected and evaporated to dryness. Subsequently, the dried samples were dissolved in 10 μl of DW and subjected to ABEE derivatization before LC-MS analysis. The area under the curve (AUC) of plasma concentration was calculated using the trapezoid formula.

[4] = system: Caco-2 cell monolayers; test: Transepithelial permeation route analysis with transport inhibitors in Caco-2 cell monolayers; conditions: for effect of sodium azide on transport rate: 1 mM sodium azide preincubated 30 min, then 2 h incubation; for effect of cytochalasin B on transepithelial permeability: Caco-2; for effect on TEER value of Caco-2 cell monolayers: inhibitor in apical chamber (sodium azide 1 mM, colchicine 1 mM, cytochalasin B 5 μg/ml), TEER after 2 h
Description: as §1, §2
The effects of various inhibitors on the transepithelial absorption through Caco-2 cell monolayers were examined to identify the transport routes of Abi and Ahe. We used 1 mM sodium azide and 1 mM colchicine as an electron-transport-chain inhibitor and a transcytosis inhibitor, respectively, to determine whether an energy-dependent pathway is involved. […] Next, we used cytochalasin B as a tight junction disruptor to investigate the involvement of the paracellular pathway in the transepithelial permeation of Abi and Ahe. Cytochalasin B increases the paracellular permeability by affecting the tight junction structure through the myosin light chain kinase activation ([14]).

[5] = system: Caco-2 cell monolayers; assay type: in vitro ADME, human; remark: listed apart in the source
Description: The correlation between TEER and permeation rate was examined to confirm the occurrence of Abi and Ahe transport via the paracellular pathway by using the LY fluorescent stain for comparison. Thus, Abi, Ahe, and LY were added to the apical chamber with or without cytochalasin B. The basal chamber solution was collected, and the TEER was measured every 1 h for 3 h, thereby quantifying Abi, Ahe, and LY in the basal chamber. The TEER and quantified values are plotted as a scatter plot in Figure 6.

[6] = design: method as in PMID 20378994; conditions: cited from earlier work

Molecule	AUC ([3]; 1 g/kg) [ng·h/mL]	Cmax ([3]; 1 g/kg) [ng/mL]	Tmax ([3]; 1 g/kg) [h]	AUC ([3]; 5 g/kg) [ng·h/mL]	Cmax ([3]; 5 g/kg) [ng/mL]	Tmax ([3]; 5 g/kg) [h]	Pearson correlation coefficient value between TEER and amount permeated [5]	effect on TEER value of Caco-2 cell monolayers [4]	other results
OC[C@H]1O[C@@H](O[C@H]2[C@H]3OC[C@@H]2OC(O)[C@H]3O)[C@H](O)[C@@H](O)[C@H]1O (mixture of isomers) [Abi, agarobiose]	620 ± 180	76.4 ± 36.7	4	2560 ± 810	439.8 ± 182.6	4	−0.832		nitric oxide (NO) production on stimulated peritoneal macrophages [1]: suppression; Papp [2]: 0.41 ± 0.03 10^−6 cm/s; percentage permeated [2]: 0.27 ± 0.02 %/h; effect of sodium azide on transport rate [4]: did not have any significant effect; effect of cytochalasin B on transepithelial permeability [4]: increased
[N-]=[N+]=[N-].[Na+] [sodium azide, reference compound]								did not have any significant effect	
OC[C@H]1O[C@@H](O[C@H]2[C@H]3OC[C@@H]2O[C@@H](O[C@H]2[C@@H](O)[C@@H](CO)O[C@@H](O[C@H]4[C@H]5OC[C@@H]4O[C@@H](O[C@H]4[C@@H](O)[C@@H](CO)O[C@@H](O[C@H]6[C@H]7OC[C@@H]6OC(O)[C@H]7O)[C@@H]4O)[C@H]5O)[C@@H]2O)[C@H]3O)[C@H](O)[C@@H](O)[C@H]1O (mixture of isomers) [Ahe, agarohexaose]	290 ± 270	42.1 ± 37.1	4	460 ± 250	107.8 ± 55.0	4	−0.814		Papp [2]: 0.21 ± 0.01 10^−6 cm/s; percentage permeated [2]: 0.14 ± 0.01 %/h; effect of sodium azide on transport rate [4]: did not have any significant effect; effect of cytochalasin B on transepithelial permeability [4]: increased
OC[C@H]1O[C@@H](O[C@H]2[C@H]3OC[C@@H]2O[C@@H](O[C@H]2[C@@H](O)[C@@H](CO)O[C@@H](O[C@H]4[C@H]5OC[C@@H]4O[C@@H](O)[C@H]5O)[C@@H]2O)[C@H]3O)[C@H](O)[C@@H](O)[C@H]1O [Ate, agarotetraose]	390 ± 170	58.9 ± 37.6	4	1390 ± 450	239.5 ± 98.2	4			nitric oxide (NO) production on stimulated peritoneal macrophages [1]: suppression
C=C1[C@@H](C)[C@H]2[C@H](Cc3ccccc3)NC(=O)[C@]23OC(=O)/C=C/[C@H](O)CCC[C@@H](C)C/C=C/[C@H]3[C@@H]1O [cytochalasin B, reference compound]								significantly decreased	
COc1cc2c(c(OC)c1OC)-c1ccc(OC)c(=O)cc1[C@@H](NC(C)=O)CC2 [colchicine, reference compound]								did not have any significant effect	
Lucifer yellow CH dilithium salt [LY, reference compound]							−0.779		
OC[C@H]1O[C@@H](O)[C@H](O)[C@@H](O[C@@H]2O[C@H]3CO[C@@H]([C@@H]2O)[C@@H]3O[C@@H]2O[C@H](CO)[C@H](O)[C@H](O[C@@H]3O[C@H]4CO[C@@H]([C@@H]3O)[C@@H]4O[C@@H]3O[C@H](CO)[C@H](O)[C@H](O[C@@H]4O[C@H]5CO[C@@H]([C@@H]4O)[C@@H]5O)[C@H]3O)[C@H]2O)[C@H]1O [neoagarohexaose]									anti-inflammatory activity [6]: no anti-inflammatory activity
